Tests used:
Assay in all cases: relative viability (nuclei count vs DMSO), 5 days (fraction); higher = more cells survive
BEN = test system: BEN
Procedure, shortened: (§1)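 Dosing by pin tool came one day after lung cancer cell lines were seeded in 1536-well plates, using either one drug or a fixed anchor-drug dose plus five library-drug doses (not always all listed) in √10 steps. After 5 days, nuclei were counted on 4× images. Relative viability is treated-well nuclei count divided by vehicle-well nuclei count, and values are medians of duplicate plates.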

CAL-12T = test system: CAL-12T
Procedure, shortened: as §1

EKVX = test system: EKVX
Procedure, shortened: as §1

HCC-15 = test system: HCC-15
Procedure, shortened: as §1

HCC-44 = test system: HCC-44
Procedure, shortened: as §1

LCLC-103H = test system: LCLC-103H
Procedure, shortened: as §1

LOU-NH91 = test system: LOU-NH91
Procedure, shortened: as §1

NCI-H1355 = test system: NCI-H1355
Procedure, shortened: as §1

NCI-H1395 = test system: NCI-H1395
Procedure, shortened: as §1

NCI-H1437 = test system: NCI-H1437
Procedure, shortened: as §1

NCI-H1563 = test system: NCI-H1563
Procedure, shortened: as §1

NCI-H1650 = test system: NCI-H1650
Procedure, shortened: as §1

NCI-H1651 = test system: NCI-H1651
Procedure, shortened: as §1

NCI-H1734 = test system: NCI-H1734
Procedure, shortened: as §1

NCI-H1755 = test system: NCI-H1755
Procedure, shortened: as §1

NCI-H1975 = test system: NCI-H1975
Procedure, shortened: as §1

NCI-H2023 = test system: NCI-H2023
Procedure, shortened: as §1

NCI-H2085 = test system: NCI-H2085
Procedure, shortened: as §1

NCI-H2342 = test system: NCI-H2342
Procedure, shortened: as §1

NCI-H358 = test system: NCI-H358
Procedure, shortened: as §1

NCI-H441 = test system: NCI-H441
Procedure, shortened: as §1

NCI-H460 = test system: NCI-H460
Procedure, shortened: as §1

NCI-H838 = test system: NCI-H838
Procedure, shortened: as §1

SMILES: Clc1ccc(Nc2nnc(Cc3ccncc3)c3ccccc23)cc1 [Vatalanib] + CCNC(=O)c1noc(-c2cc(C(C)C)c(O)cc2O)c1-c1ccc(CN2CCOCC2)cc1 [Luminespib] (partner 0.01 µM)
- relative viability (BEN; first compound 0.04 µM): 0.218
- relative viability (BEN; first compound 0.1265 µM): 0.265
- relative viability (BEN; first compound 0.4 µM): 0.514
- relative viability (BEN; first compound 1.265 µM): 0.399
- relative viability (BEN; first compound 4 µM): 0.404
- relative viability (CAL-12T; first compound 0.04 µM): 0.722
- relative viability (CAL-12T; first compound 0.1265 µM): 0.406
- relative viability (CAL-12T; first compound 0.4 µM): 0.502
- relative viability (CAL-12T; first compound 1.265 µM): 0.255
- relative viability (CAL-12T; first compound 4 µM): 0.513
- relative viability (EKVX; first compound 0.04 µM): 0.904
- relative viability (EKVX; first compound 0.1265 µM): 0.805
- relative viability (EKVX; first compound 0.4 µM): 0.876
- relative viability (EKVX; first compound 4 µM): 0.852
- relative viability (HCC-15; first compound 0.04 µM): 0.42
- relative viability (HCC-15; first compound 0.1265 µM): 0.457
- relative viability (HCC-15; first compound 0.4 µM): 0.181
- relative viability (HCC-15; first compound 1.265 µM): 0.234
- relative viability (HCC-15; first compound 4 µM): 0.235
- relative viability (HCC-44; first compound 0.04 µM): 1.24
- relative viability (HCC-44; first compound 0.1265 µM): 1.01
- relative viability (HCC-44; first compound 0.4 µM): 0.953
- relative viability (HCC-44; first compound 1.265 µM): 0.927
- relative viability (HCC-44; first compound 4 µM): 1.05
- relative viability (LCLC-103H; first compound 0.04 µM): 0.961
- relative viability (LCLC-103H; first compound 0.1265 µM): 0.878
- relative viability (LCLC-103H; first compound 0.4 µM): 0.967
- relative viability (LCLC-103H; first compound 1.265 µM): 0.969
- relative viability (LCLC-103H; first compound 4 µM): 1
- relative viability (LOU-NH91; first compound 0.04 µM): 0.371
- relative viability (LOU-NH91; first compound 0.1265 µM): 0.331
- relative viability (LOU-NH91; first compound 1.265 µM): 0.368
- relative viability (LOU-NH91; first compound 4 µM): 0.315
- relative viability (NCI-H1355; first compound 0.04 µM): 0.74
- relative viability (NCI-H1355; first compound 0.1265 µM): 0.675
- relative viability (NCI-H1355; first compound 0.4 µM): 0.748
- relative viability (NCI-H1355; first compound 1.265 µM): 0.656
- relative viability (NCI-H1355; first compound 4 µM): 0.738
- relative viability (NCI-H1395; first compound 0.04 µM): 0.668
- relative viability (NCI-H1395; first compound 0.1265 µM): 0.65
- relative viability (NCI-H1395; first compound 0.4 µM): 0.834
- relative viability (NCI-H1395; first compound 1.265 µM): 0.66
- relative viability (NCI-H1395; first compound 4 µM): 0.674
- relative viability (NCI-H1437; first compound 0.04 µM): 1.21
- relative viability (NCI-H1437; first compound 0.1265 µM): 1.19
- relative viability (NCI-H1437; first compound 0.4 µM): 1.13
- relative viability (NCI-H1437; first compound 1.265 µM): 1.12
- relative viability (NCI-H1437; first compound 4 µM): 1.14
- relative viability (NCI-H1563; first compound 0.04 µM): 0.493
- relative viability (NCI-H1563; first compound 0.1265 µM): 0.539
- relative viability (NCI-H1563; first compound 0.4 µM): 0.519
- relative viability (NCI-H1563; first compound 1.265 µM): 0.495
- relative viability (NCI-H1563; first compound 4 µM): 0.56
- relative viability (NCI-H1650; first compound 0.04 µM): 0.21
- relative viability (NCI-H1650; first compound 0.1265 µM): 0.193
- relative viability (NCI-H1650; first compound 0.4 µM): 0.206
- relative viability (NCI-H1650; first compound 1.265 µM): 0.203
- relative viability (NCI-H1650; first compound 4 µM): 0.208
- relative viability (NCI-H1651; first compound 0.04 µM): 0.852
- relative viability (NCI-H1651; first compound 0.1265 µM): 0.891
- relative viability (NCI-H1651; first compound 0.4 µM): 0.878
- relative viability (NCI-H1651; first compound 1.265 µM): 0.869
- relative viability (NCI-H1651; first compound 4 µM): 0.915
- relative viability (NCI-H1734; first compound 0.04 µM): 0.224
- relative viability (NCI-H1734; first compound 0.1265 µM): 0.153
- relative viability (NCI-H1734; first compound 0.4 µM): 0.193
- relative viability (NCI-H1734; first compound 1.265 µM): 0.167
- relative viability (NCI-H1734; first compound 4 µM): 0.192
- relative viability (NCI-H1755; first compound 0.04 µM): 0.419
- relative viability (NCI-H1755; first compound 0.1265 µM): 0.439
- relative viability (NCI-H1755; first compound 0.4 µM): 0.556
- relative viability (NCI-H1755; first compound 1.265 µM): 0.316
- relative viability (NCI-H1755; first compound 4 µM): 0.453
- relative viability (NCI-H1975; first compound 0.04 µM): 0.154
- relative viability (NCI-H1975; first compound 0.1265 µM): 0.238
- relative viability (NCI-H1975; first compound 0.4 µM): 0.237
- relative viability (NCI-H1975; first compound 1.265 µM): 0.29
- relative viability (NCI-H1975; first compound 4 µM): 0.177
- relative viability (NCI-H2023; first compound 0.04 µM): 0.58
- relative viability (NCI-H2023; first compound 0.1265 µM): 0.66
- relative viability (NCI-H2023; first compound 0.4 µM): 0.762
- relative viability (NCI-H2023; first compound 1.265 µM): 0.537
- relative viability (NCI-H2023; first compound 4 µM): 0.688
- relative viability (NCI-H2085; first compound 0.04 µM): 0.474
- relative viability (NCI-H2085; first compound 0.1265 µM): 0.529
- relative viability (NCI-H2085; first compound 0.4 µM): 0.464
- relative viability (NCI-H2085; first compound 1.265 µM): 0.609
- relative viability (NCI-H2085; first compound 4 µM): 0.469
- relative viability (NCI-H2342; first compound 0.04 µM): 0.684
- relative viability (NCI-H2342; first compound 0.1265 µM): 0.684
- relative viability (NCI-H2342; first compound 0.4 µM): 0.822
- relative viability (NCI-H2342; first compound 1.265 µM): 0.869
- relative viability (NCI-H2342; first compound 4 µM): 0.658
- relative viability (NCI-H358; first compound 0.04 µM): 0.498
- relative viability (NCI-H358; first compound 0.1265 µM): 0.381
- relative viability (NCI-H358; first compound 0.4 µM): 0.353
- relative viability (NCI-H358; first compound 1.265 µM): 0.345
- relative viability (NCI-H358; first compound 4 µM): 0.308
- relative viability (NCI-H441; first compound 0.04 µM): 0.367
- relative viability (NCI-H441; first compound 0.1265 µM): 0.251
- relative viability (NCI-H441; first compound 0.4 µM): 0.382
- relative viability (NCI-H441; first compound 1.265 µM): 0.377
- relative viability (NCI-H441; first compound 4 µM): 0.354
- relative viability (NCI-H460; first compound 0.04 µM): 0.0407
- relative viability (NCI-H460; first compound 0.1265 µM): 0.0276
- relative viability (NCI-H460; first compound 0.4 µM): 0.0374
- relative viability (NCI-H460; first compound 1.265 µM): 0.0261
- relative viability (NCI-H460; first compound 4 µM): 0.0364
- relative viability (NCI-H838; first compound 0.04 µM): 0.326
- relative viability (NCI-H838; first compound 0.1265 µM): 0.267
- relative viability (NCI-H838; first compound 0.4 µM): 0.244
- relative viability (NCI-H838; first compound 1.265 µM): 0.305
- relative viability (NCI-H838; first compound 4 µM): 0.378

Reference: the supplement of paper PMC10307832
